Experimental data reported in patent US20100267561A1, “HERBICIDAL PYRIDAZINONE DERIVATIVES” (priority 2007, published 2010).

What was measured:
Assay type in all cases: in vivo
corn (Zea mays) = assay: Test A pre-/postemergence plant response
In short: (§1)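 Both pre- and postemergence treatment given concurrently; postemergence seedlings measured 2–10 cm at the one- to two-leaf stage. Visual injury, 0–100 scale versus untreated, at ~10 days.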

[1] = system: giant foxtail (Setaria faberi); assay: Test A pre-/postemergence plant response
In short: as §1

[2] = system: morningglory (Ipomoea coccinea); assay: Test A pre-/postemergence plant response
In short: as §1

[3] = system: large crabgrass (Digitaria sanguinalis); assay: Test A pre-/postemergence plant response
In short: as §1

[4] = system: wheat (Triticum aestivum); assay: Test A pre-/postemergence plant response
In short: as §1

[5] = system: velvetleaf (Abutilon theophrasti); assay: Test A pre-/postemergence plant response
In short: as §1

[6] = system: pigweed (Amaranthus retroflexus); assay: Test A pre-/postemergence plant response
In short: as §1

[7] = system: barnyardgrass (Echinochloa crus-galli); assay: Test A pre-/postemergence plant response
In short: as §1

[8] = system: yellow nutsedge (Cyperus esculentus); assay: Test B pre-/postemergence plant response
In short: (§2)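 Preemergence and postemergence (plants 2-18 cm, 1- to 4-leaf stage) applications used test chemicals in a non-phytotoxic solvent with surfactant. Plants were held in a greenhouse 13 to 15 days, then rated visually against controls on a 0-100 scale (0 no effect, 100 complete control).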

[9] = system: bermudagrass (Cynodon dactylon); assay: Test B pre-/postemergence plant response; settings: for Bermudagrass plant response rating: 8 g ai/ha
In short: as §2

[10] = system: cocklebur (Xanthium strumarium); assay: Test B pre-/postemergence plant response; settings: for Cocklebur plant response rating: 8 g ai/ha
In short: as §2

[11] = system: chickweed (Stellaria media); assay: Test B postemergence plant response; settings: for Chickweed plant response rating: 8 g ai/ha, postemergence, 0-100 scale; for Plant response rating, Chickweed: Postemergence
In short: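 Compounds applied after emergence to 2–18 cm plants; response read visually 13–15 days later on 0 (none) to 100 (complete control); a dash marks no result.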

[12] = Postemergence, 31 g ai/ha, 0 to 100 scale (0 no effect, 100 complete control)
[13] = Postemergence, 125 g ai/ha, 0 to 100 scale, 0 no effect, 100 complete control
[14] = Preemergence, 31 g ai/ha, 0 to 100 scale, 0 is no effect, 100 is complete control
[15] = Preemergence, 125 g ai/ha, 0 to 100 scale (0 no effect, 100 complete control)
[16] = 8 g ai/ha, postemergence, 0-100 scale
[17] = 16 g ai/ha, postemergence, 0-100 scale
[18] = Postemergence, 31 g ai/ha, scale 0 to 100
[19] = Postemergence, 62 g ai/ha, scale 0 to 100, 0 no effect, 100 complete control
[20] = Preemergence, 31 g ai/ha, scale 0 to 100 (0 no effect, 100 complete control)
[21] = Preemergence, 62 g ai/ha, 0 to 100 scale, 0 no effect, 100 complete control
[22] = Preemergence, 8 g ai/ha, scale 0 to 100
[23] = Preemergence, 16 g ai/ha, scale 0 to 100
[24] = Postemergence, 16 g ai/ha, scale 0 to 100
[25] = Preemergence, scale 0 to 100 (0 no effect, 100 complete control)
[26] = Preemergence, 16 g ai/ha, scale 0 to 100 (0 no effect, 100 complete control)
[27] = 62 g ai/ha, scale 0 to 100, 0 no effect, 100 complete control

Structure (SMILES): CCc1cc(-c2ccc(Br)cc2)nn1-c1c(O)cnn(C)c1=O [Compound 61]
- Plant response rating, Corn (corn (Zea mays); [12]): 100
- Plant response rating, Corn (corn (Zea mays); [13]): 100
- Plant response rating, Corn (corn (Zea mays); [14]): 70
- Plant response rating, Corn (corn (Zea mays); [15]): 90
- Plant response rating, Foxtail, Giant [1, 12]: 100
- Plant response rating, Foxtail, Giant [1, 13]: 100
- Plant response rating, Foxtail, Giant [1, 14]: 100
- Plant response rating, Foxtail, Giant [1, 15]: 100
- Plant response rating, Morningglory [2, 12]: 0
- Plant response rating, Morningglory [2, 13]: 0
- Plant response rating, Morningglory [2, 14]: 0
- Plant response rating, Morningglory [2, 15]: 0
- Plant response rating, Crabgrass, Large [3, 12]: 100
- Plant response rating, Crabgrass, Large [3, 13]: 100
- Plant response rating, Crabgrass, Large [3, 14]: 80
- Plant response rating, Crabgrass, Large [3, 15]: 100
- Plant response rating, Wheat [4, 12]: 80
- Plant response rating, Wheat [4, 13]: 90
- Plant response rating, Wheat [4, 14]: 70
- Plant response rating, Wheat [4, 15]: 90
- Plant response rating, Velvetleaf [5, 12]: 0
- Plant response rating, Velvetleaf [5, 13]: 0
- Plant response rating, Velvetleaf [5, 14]: 0
- Plant response rating, Velvetleaf [5, 15]: 0
- Plant response rating, Pigweed [6, 12]: 0
- Plant response rating, Pigweed [6, 13]: 0
- Plant response rating, Pigweed [6, 14]: 0
- Plant response rating, Pigweed [6, 15]: 0
- Plant response rating, Barnyardgrass [7, 12]: 100
- Plant response rating, Barnyardgrass [7, 13]: 100
- Plant response rating, Barnyardgrass [7, 14]: 90
- Plant response rating, Barnyardgrass [7, 15]: 100
- Nutsedge, Yellow plant response rating [8, 16]: 0
- Nutsedge, Yellow plant response rating [8, 17]: 0
- Plant response rating, Nutsedge, Yellow [8, 18]: 0
- Plant response rating, Nutsedge, Yellow [8, 19]: 0
- Plant response rating, Nutsedge, Yellow [8, 20]: 0
- Plant response rating, Nutsedge, Yellow [8, 21]: 0
- Nutsedge, Yellow plant response rating [8, 22]: 0
- Nutsedge, Yellow plant response rating [8, 23]: 0
- Bermudagrass plant response rating ([9]; postemergence, 0-100 scale): 55
- Plant response rating, Bermudagrass [9, 24]: 70
- Plant response rating, Bermudagrass [9, 18]: 95
- Plant response rating, Bermudagrass [9, 19]: 100
- Bermudagrass plant response rating [9, 25]: 55
- Plant response rating, Bermudagrass [9, 26]: 80
- Plant response rating, Bermudagrass [9, 20]: 90
- Plant response rating, Bermudagrass [9, 21]: 95
- Cocklebur plant response rating ([10]; postemergence, 0-100 scale): 0
- Plant response rating, Cocklebur [10, 24]: 0
- Plant response rating, Cocklebur [10, 18]: 0
- Plant response rating, Cocklebur [10, 19]: 0
- Plant response rating, Cocklebur [10, 26]: 0
- Plant response rating, Cocklebur [10, 20]: 0
- Plant response rating, Cocklebur [10, 21]: 0
- Cocklebur plant response rating ([10]; Preemergence, scale 0 to 100): 0
- Chickweed plant response rating [11]: 0
- Plant response rating, Chickweed ([11]; 16 g ai/ha, scale 0 to 100): 0
- Plant response rating, Chickweed ([11]; 31 g ai/ha, scale 0 to 100): 0
- Plant response rating, Chickweed [11, 27]: 0

Structure (SMILES): CCc1cc(-c2ccc(C(F)(F)F)cc2)nn1-c1c(O)cnn(CC)c1=O [Compound 67]
- Plant response rating, Corn (corn (Zea mays); [12]): 90
- Plant response rating, Corn (corn (Zea mays); [13]): 100
- Plant response rating, Corn (corn (Zea mays); [14]): 20
- Plant response rating, Corn (corn (Zea mays); [15]): 80
- Plant response rating, Foxtail, Giant [1, 12]: 100
- Plant response rating, Foxtail, Giant [1, 13]: 100
- Plant response rating, Foxtail, Giant [1, 14]: 40
- Plant response rating, Foxtail, Giant [1, 15]: 100
- Plant response rating, Morningglory [2, 12]: 0
- Plant response rating, Morningglory [2, 13]: 0
- Plant response rating, Morningglory [2, 14]: 0
- Plant response rating, Morningglory [2, 15]: 0
- Plant response rating, Crabgrass, Large [3, 12]: 80
- Plant response rating, Crabgrass, Large [3, 13]: 100
- Plant response rating, Crabgrass, Large [3, 14]: 20
- Plant response rating, Crabgrass, Large [3, 15]: 90
- Plant response rating, Wheat [4, 12]: 90
- Plant response rating, Wheat [4, 13]: 100
- Plant response rating, Wheat [4, 14]: 20
- Plant response rating, Wheat [4, 15]: 90
- Plant response rating, Velvetleaf [5, 12]: 0
- Plant response rating, Velvetleaf [5, 13]: 0
- Plant response rating, Velvetleaf [5, 14]: 0
- Plant response rating, Velvetleaf [5, 15]: 0
- Plant response rating, Pigweed [6, 12]: 0
- Plant response rating, Pigweed [6, 13]: 0
- Plant response rating, Pigweed [6, 14]: 0
- Plant response rating, Pigweed [6, 15]: 0
- Plant response rating, Barnyardgrass [7, 12]: 100
- Plant response rating, Barnyardgrass [7, 13]: 100
- Plant response rating, Barnyardgrass [7, 14]: 0
- Plant response rating, Barnyardgrass [7, 15]: 100
- Nutsedge, Yellow plant response rating [8, 16]: 0
- Nutsedge, Yellow plant response rating [8, 17]: 0
- Plant response rating, Nutsedge, Yellow [8, 18]: 0
- Plant response rating, Nutsedge, Yellow [8, 19]: 0
- Plant response rating, Nutsedge, Yellow [8, 20]: 0
- Plant response rating, Nutsedge, Yellow [8, 21]: 0
- Nutsedge, Yellow plant response rating [8, 22]: 0
- Nutsedge, Yellow plant response rating [8, 23]: 0
- Bermudagrass plant response rating ([9]; postemergence, 0-100 scale): 0
- Plant response rating, Bermudagrass [9, 24]: 0
- Plant response rating, Bermudagrass [9, 18]: 60
- Plant response rating, Bermudagrass [9, 19]: 75
- Bermudagrass plant response rating [9, 25]: 0
- Plant response rating, Bermudagrass [9, 26]: 0
- Plant response rating, Bermudagrass [9, 20]: 0
- Plant response rating, Bermudagrass [9, 21]: 0
- Cocklebur plant response rating ([10]; postemergence, 0-100 scale): 0
- Plant response rating, Cocklebur [10, 24]: 0
- Plant response rating, Cocklebur [10, 18]: 0
- Plant response rating, Cocklebur [10, 19]: 0
- Plant response rating, Cocklebur [10, 26]: 0
- Plant response rating, Cocklebur [10, 20]: 0
- Plant response rating, Cocklebur [10, 21]: 0
- Cocklebur plant response rating ([10]; Preemergence, scale 0 to 100): 0
- Chickweed plant response rating [11]: 0
- Plant response rating, Chickweed ([11]; 16 g ai/ha, scale 0 to 100): 0
- Plant response rating, Chickweed ([11]; 31 g ai/ha, scale 0 to 100): 0
- Plant response rating, Chickweed [11, 27]: 0
